Laboratory results from patent US9457040B2, “Effective treatment of esophageal adenocarcinoma using triciribine and related compounds” (University of South Florida, priority 2007, dated 2016).
Blank lines part the entries; values can stand above or below the compound they belong to.

What was measured:
[1] = cited from earlier work
[2] = system: advanced refractory malignancies; settings: patients; i.v. infusion over fifteen minutes once every three weeks, 25 to 350 mg/m^2; cited from earlier work
advanced solid cancers = settings: patients; i.v. days 1, 8, 15 and 22 of a 42 day cycle, 12 to 96 mg/m^2; cited from earlier work
[3] = system: metastatic colorectal adenocarcinoma; settings: patients; i.v. over 15 minutes 165 or 250 mg/m^2 once a week in three week intervals; cited from earlier work
[4] = system: advanced squamous cell carcinoma of the cervix; settings: cited from earlier work
PKCα = PKCα (Homo sapiens, UniProt P17252); assay: PKCα kinase activity / phospho-PKCα-T638 immunoblot; assay type: cell-based; settings: anti-phospho-PKCα-T638 immunoblot

SMILES: CN1N=C(N)c2cn([C@@H]3O[C@H](COP(=O)(O)O)[C@@H](O)[C@H]3O)c3ncnc1c23 [TCN-P, triciribine phosphate]
solubility relative to the parent drug [1]: more soluble than the parent drug | therapeutic response [2]: limited therapeutic responses | toxicity [2]: significant toxicity | toxicity (advanced solid cancers): unexpected clinical toxicity | clinical usefulness [3]: lack of clinical usefulness | responses among twenty-one evaluable patients ([4]; 5 day continuous infusion of at least 35 mg/m^2 every six weeks): only two responses were observed | activity (authors' conclusion) ([4]; metastatic or recurrent squamous cell cancer of the cervix, this dose and schedule): limited activity

kinase activity of PKCα (PKCα): inhibited
SMILES: Cn1cc(C2=C(c3cn(CCCSC(=N)N)c4ccccc34)C(=O)NC2=O)c2ccccc21 [Ro 31-8220]
